Laboratory results: US12421253B2 (Mirati Therapeutics, Inc., priority 2020, dated 2025)

Columns and labels:
KRas^G12D = target: T1, KRas^G12D (Homo sapiens, UniProt P01116, G12D); assay: KRas binding assay (TR-FRET displacement of Cy5 labelled tracer)
T1 construct: […]; biotin (biotinylated); purchased Accelegan Inc
Experimental: (§3) The ability of a compound to bind to KRas was measured using a TR-FRET displacement assay. […] After a 60-minute incubation at room temperature, the reaction was measured using a BMG LABTECH CLARIO star Plus via TR-FRET. […] The POC values were fit to a 4-parameter IC50 equation and the IC50 value reported.

[1] = system: PSN-1 (G12R) cells, phospho-ERK; assay: Inhibition of KRas-mediated phosphorylation of ERK (phospho-ERK/GAPDH antibody detection, LI-COR); format: cell-based; conditions: Homo sapiens, PSN1, 3 hours
How it was run: (§1)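 Cells seeded 20,000/well, attached 12-14 h, then compound (0.5% DMSO) for 3 h. Formaldehyde-fixed, methanol-permeabilized cells stained for phospho-ERK (Thr202/Tyr204) and GAPDH; infrared imaging. Ratio expressed as % of DMSO control; IC50 from 4-parameter fit.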

[2] = system: A549 (G12S) cells, phospho-ERK; assay: as above; format: cell-based; conditions: Homo sapiens, 3 hours
How it was run: as §1

[3] = system: NCI-H358 (G12C) cells, phospho-ERK; assay: as above; format: cell-based; conditions: Homo sapiens, 3 hours
How it was run: as §1

[4] = system: HCT116 (G13D) cells, phospho-ERK; assay: as above; format: cell-based; conditions: Homo sapiens, HCT-116, 3 hours
How it was run: as §1

[5] = system: NCI-H727 (G12V) cells, phospho-ERK; assay: as above; format: cell-based; conditions: Homo sapiens, 3 hours
How it was run: as §1

KRas^G12V = target: T2, KRas^G12V (Homo sapiens, UniProt P01116, G12V); assay: KRas binding assay (TR-FRET displacement of Cy5 labelled tracer)
T2 construct: […]; biotin (biotinylated); purchased Accelegan Inc
Experimental: as §3

KRas^G12R = target: T3, KRas^G12R (Homo sapiens, UniProt P01116, G12R); assay: as above
T3 construct: […]; biotin (biotinylated); purchased Accelegan Inc
Experimental: as §3

[6] = system: NCI-H460 (Q61H) cells, phospho-ERK; assay: Inhibition of KRas-mediated phosphorylation of ERK (phospho-ERK/GAPDH antibody detection, LI-COR); format: cell-based; conditions: Homo sapiens, 3 hours
How it was run: as §1

[7] = system: AsPC-1 (G12D) cells, phospho-ERK; assay: as above; format: cell-based; conditions: Homo sapiens, ASPC1, 3 hours
How it was run: as §1

A549 cells, pERK = assay: Inhibition of KRas phosphorylation of ERK (Cisbio HTRF Advanced pERK assay); format: cell-based; conditions: Homo sapiens, 3 hrs, read-out: Inhibition (HTRF IC50 nM) of KRas-mediated Phosphorylation of ERK, A549
How it was run: (§2)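 Overnight-plated cells (RPMI, 10% FBS); compound 3 h, 37 °C, 10 uM top, 3-fold x10, 0.8% DMSO; min ctrl trametinib 0.2 uM; lysis 40 min 4 °C; pERK by HTRF, 2 h RT.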

H460 cells, pERK = assay: as above; format: cell-based; conditions: Homo sapiens, NCI-H460, 3 hrs, read-out: Inhibition (HTRF IC50 nM) of KRas-mediated Phosphorylation of ERK, H460
How it was run: as §2

ASPC1 cells, pERK = assay: as above; format: cell-based; conditions: Homo sapiens, ASPC1, 3 h, AsPC-1 cells, read-out: Inhibition (HTRF IC50 nM) of KRas-mediated Phosphorylation of ERK, AsPC-1
How it was run: as §2

PSN1 cells, pERK = assay: as above; format: cell-based; conditions: Homo sapiens, PSN1, 3 h, read-out: Inhibition (HTRF IC50 nM) of KRas-mediated Phosphorylation of ERK, PSN1
How it was run: as §2

H358 cells, pERK = assay: as above; format: cell-based; conditions: Homo sapiens, NCI-H358, 3 hrs, read-out: Inhibition (HTRF IC50 nM) of KRas-mediated Phosphorylation of ERK, H358
How it was run: as §2

H727 cells, pERK = assay: as above; format: cell-based; conditions: Homo sapiens, NCI-H727, 3 h, read-out: Inhibition (HTRF IC50 nM) of KRas-mediated Phosphorylation of ERK, H727
How it was run: as §2

MKN1 cells, pERK = assay: as above; format: cell-based; conditions: Homo sapiens, MKN-1, 3 h, read-out: Inhibition (HTRF IC50 nM) of KRas-mediated Phosphorylation of ERK, MKN1
How it was run: as §2

HCT116 cells, pERK = assay: as above; format: cell-based; conditions: Homo sapiens, HCT-116, 3 hrs, read-out: Inhibition (HTRF IC50 nM) of KRas-mediated Phosphorylation of ERK, HCT116
How it was run: as §2

T2 sequence (P01116 1-169 isoform P01116-2 G12V): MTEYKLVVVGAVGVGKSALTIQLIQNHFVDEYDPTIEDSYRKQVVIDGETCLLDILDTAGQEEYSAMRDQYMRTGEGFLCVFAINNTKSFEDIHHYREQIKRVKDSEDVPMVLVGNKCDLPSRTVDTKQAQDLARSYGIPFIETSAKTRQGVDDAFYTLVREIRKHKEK
T1 sequence (P01116 1-169 isoform P01116-2 G12D): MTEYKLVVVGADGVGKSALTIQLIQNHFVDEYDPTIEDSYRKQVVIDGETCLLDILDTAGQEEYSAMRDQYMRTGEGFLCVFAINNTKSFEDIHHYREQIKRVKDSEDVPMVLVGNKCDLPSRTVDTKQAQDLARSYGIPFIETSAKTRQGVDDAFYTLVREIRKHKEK
T3 sequence (P01116 1-169 isoform P01116-2 G12R): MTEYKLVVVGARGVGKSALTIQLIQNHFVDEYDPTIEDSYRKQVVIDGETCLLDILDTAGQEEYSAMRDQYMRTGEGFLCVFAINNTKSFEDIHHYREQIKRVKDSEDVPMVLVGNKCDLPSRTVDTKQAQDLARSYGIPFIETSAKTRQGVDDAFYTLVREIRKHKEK

SMILES	IC50 (KRas^G12D) [nM]	IC50 [1] [nM]	IC50 [2] [nM]	IC50 [3] [nM]	IC50 [4] [nM]	IC50 [5] [nM]	IC50 (KRas^G12V) [nM]	IC50 (KRas^G12R) [nM]	IC50 [6] [nM]	IC50 [7] [nM]	IC50 (A549 cells, pERK) [nM]	IC50 (H460 cells, pERK) [nM]	IC50 (ASPC1 cells, pERK) [nM]	IC50 (PSN1 cells, pERK) [nM]	IC50 (H358 cells, pERK) [nM]	IC50 (H727 cells, pERK) [nM]	IC50 (MKN1 cells, pERK) [nM]	IC50 (HCT116 cells, pERK) [nM]
CCc1c(F)ccc2cc(O)cc(N3CCc4c(nc(OC[C@@]56CCCN5C[C@H](F)C6)nc4NCc4cccnc4N)C3)c12 [Example 17, 4-(4-(((2-aminopyridin-3-yl)methyl)amino)-2-(((2R,7aS)-2-fluorohexahydro-1H-pyrrolizin-7a-yl)methoxy)-5,6-dihydropyrido[3,4-d]pyrimidin-7(8H)-yl)-5-ethyl-6-fluoronaphthalen-2-ol]	26	> 10000	189	232	10000	1130	≤ 2	≤ 2	–	–	–	–	–	–	–	–	–	–
CCc1c(F)ccc2cc(O)cc(N3CCc4c(nc(OC[C@@]56CCCN5C[C@H](F)C6)nc4N4CCOCC(C)(O)C4)C3)c12 (stereo partly drawn) [Example 20, 4-(7-(8-ethyl-7-fluoro-3-hydroxynaphthalen-1-yl)-2-(((2R,7aS)-2-fluorohexahydro-1H-pyrrolizin-7a-yl)methoxy)-5,6,7,8-tetrahydropyrido[3,4-d]pyrimidin-4-yl)-6-methyl-1,4-oxazepan-6-ol]	≤ 2	> 10000	446	314	860	747	≤ 2	52	–	–	–	–	–	–	–	–	–	–
CCc1c(F)ccc2cc(O)cc(N3CCc4c(nc(OC[C@@]56CCCN5C[C@H](F)C6)nc4N4CCCn5nc(CO)cc5C4)C3)c12 [Example 34, 5-ethyl-6-fluoro-4-(2-(((2R,7aS)-2-fluorohexahydro-1H-pyrrolizin-7a-yl)methoxy)-4-(2-(hydroxymethyl)-7,8-dihydro-4H-pyrazolo[1,5-a][1,4]diazepin-5(6H)-yl)-5,6-dihydropyrido[3,4-d]pyrimidin-7(8H)-yl)naphthalen-2-ol]	≤ 2	–	–	–	–	1040	≤ 2	≤ 2	774	258	351	784	31	≥ 10000	38	217	134	1270
CCc1c(F)ccc2cc(O)cc(N3CCc4c(nc(OC[C@@]56CCCN5C[C@H](F)C6)nc4N4CCCC5(C4)NC(=O)NC5=O)C3)c12 (stereo partly drawn) [Example 59, 7-(7-(8-ethyl-7-fluoro-3-hydroxynaphthalen-1-yl)-2-(((2R,7aS)-2-fluorohexahydro-1H-pyrrolizin-7a-yl)methoxy)-5,6,7,8-tetrahydropyrido[3,4-d]pyrimidin-4-yl)-1,3,7-triazaspiro[4.5]decane-2,4-dione]	≤ 2	–	–	–	–	181	≤ 2	≤ 2	17	44	3	9	8	25.3	4	40	5	16
CCc1c(F)ccc2cc(O)cc(N3CCc4c(nc(OC[C@@]56CCCN5C[C@H](F)C6)nc4N4CCC[C@]5(C4)NC(=O)NC5=O)C3)c12 [Example 196, (R)-7-(7-(8-ethyl-7-fluoro-3-hydroxynaphthalen-1-yl)-2-(((2R,7aS)-2-fluorohexahydro-1H-pyrrolizin-7a-yl)methoxy)-5,6,7,8-tetrahydropyrido[3,4-d]pyrimidin-4-yl)-1,3,7-triazaspiro[4.5]decane-2,4-dione]	≤ 2	–	–	–	–	–	≤ 2	≤ 2	–	–	2	2	6	18	1	11	5	5
CCc1c(F)ccc2cc(O)cc(N3CCc4c(nc(OCC5(CN(C)C)CC5)nc4N4CCC[C@@](C)(O)C4)C3)c12 [Example 199, (R)-1-(2-((1-((dimethylamino)methyl)cyclopropyl)methoxy)-7-(8-ethyl-7-fluoro-3-hydroxynaphthalen-1-yl)-5,6,7,8-tetrahydropyrido[3,4-d]pyrimidin-4-yl)-3-methylpiperidin-3-ol]	≤ 2	–	–	–	–	–	≤ 2	≤ 2	–	–	201	242	43	2500	65	262	31	441
CCc1c(F)ccc2cc(O)cc(N3CCc4c(nc(OCC5(CN(C)C)CC5)nc4N4C[C@@H]5C(=O)NC(=O)[C@@H]5C4)C3)c12 [Example 200, (3aS,6aR)-5-[2-[[1-[(dimethylamino)methyl]cyclopropyl]methoxy]-7-(8-ethyl-7-fluoro-3-hydroxy-1-naphthyl)-6,8-dihydro-5H-pyrido[3,4-d]pyrimidin-4-yl]-3a,4,6,6a-tetrahydropyrrolo[3,4-c]pyrrole-1,3-dione]	≤ 2	–	–	–	–	–	≤ 2	≤ 2	–	–	142	578	62	9110	77	264	27	832
CCc1c(F)ccc2cc(O)cc(N3CCc4c(nc(OCC5(CN(C)C)CC5)nc4N4CCCC5(C4)NC(=O)NC5=O)C3)c12 (centres unmarked) [Example 201, 7-(2-((1-((dimethylamino)methyl)cyclopropyl)methoxy)-7-(8-ethyl-7-fluoro-3-hydroxynaphthalen-1-yl)-5,6,7,8-tetrahydropyrido[3,4-d]pyrimidin-4-yl)-1,3,7-triazaspiro[4.5]decane-2,4-dione]	≤ 2	–	–	–	–	–	≤ 2	4	–	–	14	26	49	80.5	12	176	49	49
O=C1NCC2(CCCN(c3nc(OC[C@@]45CCCN4C[C@H](F)C5)nc4c3CCN(c3cc(O)cc5ccc(F)c(Br)c35)C4)C2)N1 (stereo partly drawn) [Example 216, 7-(7-(8-bromo-7-fluoro-3-hydroxynaphthalen-1-yl)-2-(((2R,7aS)-2-fluorohexahydro-1H-pyrrolizin-7a-yl)methoxy)-5,6,7,8-tetrahydropyrido[3,4-d]pyrimidin-4-yl)-1,3,7-triazaspiro[4.5]decan-2-one]	≤ 2	–	–	–	–	–	≤ 2	3	–	–	206	293	92	1260	27	300	19	531
CN(C)C(=O)c1cc2n(n1)CCCN(c1nc(OC[C@@]34CCCN3C[C@H](F)C4)nc3c1CCN(c1cc(O)cc4ccc(F)c(Br)c14)C3)C2 [Example 218, 5-(7-(8-bromo-7-fluoro-3-hydroxynaphthalen-1-yl)-2-(((2R,7aS)-2-fluorohexahydro-1H-pyrrolizin-7a-yl)methoxy)-5,6,7,8-tetrahydropyrido[3,4-d]pyrimidin-4-yl)-N,N-dimethyl-5,6,7,8-tetrahydro-4H-pyrazolo[1,5-a][1,4]diazepine-2-carboxamide]	≤ 2	–	–	–	–	–	≤ 2	≤ 2	–	–	294	845	46	6070	61	86	85	1340
